Results as given in ChEMBL document CHEMBL1151071, “Inhibition of human leukocyte elastase. 5. Inhibition by 6-alkyl substituted penem benzyl esters” (Bioorg Med Chem Lett, 1993).

Experiments:
[1] = molecular target: T1, Neutrophil elastase (Homo sapiens, UniProt P08246); experiment: Inhibition of Human leukocyte elastase
T1 sequence (P08246 whole entry): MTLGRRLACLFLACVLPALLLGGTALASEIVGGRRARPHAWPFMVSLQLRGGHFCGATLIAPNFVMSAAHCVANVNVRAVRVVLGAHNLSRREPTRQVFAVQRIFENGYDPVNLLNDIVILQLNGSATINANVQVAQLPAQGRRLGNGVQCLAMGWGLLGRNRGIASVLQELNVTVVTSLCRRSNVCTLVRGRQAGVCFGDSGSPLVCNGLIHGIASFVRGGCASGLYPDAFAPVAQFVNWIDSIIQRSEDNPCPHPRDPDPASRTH

[2] = molecular target: T1, Neutrophil elastase; experiment: Compound was tested for its inhibitory effect against Human leukocyte elastase (HLE)

IC50 [1]: > 20 µM
Ki [2]: 310 µM
SMILES: CC1=C(C(=O)OCc2ccccc2)N2C(=O)C[C@H]2S1 (racemic)
